Results as given in patent US20250170114A1, “METHODS OF TREATMENT USING T-TYPE CALCIUM CHANNEL MODULATORS” (Praxis Precision Medicines, Inc., priority 2022, published 2025).

System: upper limb tremor in participants with ET
Test: Phase 2 trial in essential tremor (Part A, Part B OLT, Part B RWD): TETRAS performance subscale, ADL and mADL scores
Assay type: in vivo, human
Set-up: key to TETRAS ADL Randomization Baseline Mean: TETRAS ADL: 12 items each rated 0 to 4
Source text: In some embodiments, the compound of Formula (I) or a pharmaceutically acceptable salt thereof (e.g., the HCl salt), when administered in combination with at least one of propranolol, primidone, topiramate, or a pharmaceutically acceptable salt thereof can reduce tremor severity by at least about 20% when measured by The Essential Tremor Rating Assessment Scale (TETRAS). The term “TETRAS” as used herein refers to a scale developed to quantify severity of ET and its impact on daily activities. It has an activities of daily living (ADL) section and a performance section. The ADL section has 12 items rated between 0 to 4, and the performance section has 9 items rated between 0 to 4. See, e.g., Elble, R. R., The Essential Tremor Rating Assessment Scale, J. Neurology Neuromed. 2016, 1(4):34-38. This multi-center clinical trial assessed the efficacy, safety, tolerability, and PK of the HCl salt compound of Formula (I) in participants aged 18 years of age or older who have had signs and symptoms consistent with ET for at least 3 years, with an onset before age 65. The clinical trial was conducted in 2 parts (Part A and Part B). Both parts consisted of 3 periods: Screening/Baseline, Intervention, and Safety Follow-up Periods. Part A of the clinical trial was open-label and assessed the safety and tolerability of the study drug, as well as the overall magnitude and pattern of change in ET severity. Daily dose levels of the HCl salt compound of Formula (I) were titrated from 20 mg (Day 1 to Day 7) to 40 mg (Days 8 to 14). Part B of the clinical trial consisted of both an open-label titration phase and a randomized, double-blind, placebo-controlled withdrawal phase. Part B assessed the safety and tolerability of the study drug, as well as the overall magnitude and pattern of change in ET severity and the duration of that effect. During the open-label titration phase, the daily dose levels of the HCl salt compound of Formula (I) were titrated from 20 mg (Days 1 to 3) to 40 mg (Days 4 to 7) to 60 mg (Days 8 to 14) to 80 mg (Days 15 to 21) to 100 mg (Days 22 to 28) to 120 mg (Days 29 to 42) or the highest tolerated dose. In the randomized, double-blind, placebo-controlled withdrawal phase, participants were either maintained on their final open-label dose or switched to placebo for an additional 14 days (Days 43 to 56). Part A. On Day 1, participants received a 20 mg dose of study drug, administered in the morning. Participants remained in a clinical setting under medical observation for approximately 6 hours. TETRAS Performance assessments were performed before dosing and 6 hours post-dose. After the first dose, participants continued QAM dosing at home after breakfast through Day 7. Participants returned to the clinic on Day 7 for efficacy testing at the 20 mg dose level. On Day 8, the dose increased to 40 mg QAM after breakfast through Day 14. Participants returned to the clinic on Day 14 for efficacy testing at the 40 mg dose level. Participants who agreed to optional additional PK sampling remained overnight in the clinic on Day 1, Day 7, and Day 14. Key safety measures included clinical laboratory evaluations, 12-lead ECG, C-SSRS, and vital signs. Key efficacy assessments included the TETRAS Performance subscale, TETRAS Upper Limb using accelerometry, CGI, and PGI-C. Blood samples were obtained for the determination of study drug plasma concentrations using a validated bioanalytical method and may also be used for method development and/or metabolite characterization. On Day 1, participants received a 20 mg dose of study drug on an empty stomach (at least 1 hour before breakfast). Participants remained in a clinical setting under medical observation for approximately 6 hours. TETRAS Performance assessments were performed before dosing and 6 hours (±2) post-dose. For dosing on Day 2 through Day 41, participants were instructed to dose QAM at least 1 hour before breakfast at home. Participants continued taking study drug 20 mg QAM at home through Day 3. […]

[1] = Part B OLT, Day 7, N = 10, change from pre-dose baseline
[2] = Part B OLT, Day 21, N = 12, change from pre-dose baseline
[3] = Part B OLT, Day 42, 6 hours post-dose, N = 11, change from pre-dose baseline
[4] = Part B RWD, Day 56, study drug group N = 6, change from randomization baseline, last line of the cell group
[5] = Part B RWD, study drug group N = 6, Day 42 post-dose value

CC(C)(C)NC(=O)CN1CCC(CNC(=O)c2cc(F)cc(Cl)c2)CC1.Cl [Study drug]
response (e.g., reduced tremor symptoms) of ET patients (ET patients who were taking propranolol hydrochloride, phase 2 clinical trial): responded favorably
all TETRAS performance subscale-derived scores after washout (Part A, Day 21, after a 1-week washout period): returned to near pre-dose baseline levels
mADL (TETRAS modified total score) CTA LS Mean % [1]: −18.49%
mADL (TETRAS modified total score) Score CFB LS Mean [1]: −2.862
TETRAS CULS Score CFB LS Mean [2]: 1.320
mADL (TETRAS modified total score) CTA LS Mean % [2]: −14.31%
mADL (TETRAS modified total score) Score CFB LS Mean [2]: −2.812
mADL (TETRAS modified total score) CTA LS Mean % [3]: −42.04%
mADL (TETRAS modified total score) Score CFB LS Mean [3]: −6.669
TETRAS ADL LS Mean Difference: Study drug - Placebo (95% CI) (Part B RWD, Day 56): −9.578 (−18.9020, −0.2546)
TETRAS CULS LS Mean Difference: Study drug - Placebo (95% CI) (Part B RWD, Day 56): −1.896 (−8.7365, 4.9451)
TETRAS PSTS LS Mean Difference: Study drug - Placebo (95% CI) (Part B RWD, Day 56): −3.025 (−11.2090, 5.1595)
TETRAS ULS LS Mean Difference: Study drug - Placebo (95% CI) (Part B RWD, Day 56): −0.253 (−4.9188, 4.4129)
mADL LS Mean Difference: Study drug - Placebo (95% CI) (Part B RWD, Day 56): −8.439 (−15.3856, −1.4916)
mADL (TETRAS modified total score) LS Mean CFB (Part B RWD, Day 56, study drug group N = 6, change from randomization baseline): 1.350
TETRAS ADL Mean CFB [4]: 5.84
mADL (TETRAS modified total score) Mean CFB [4]: 8.45
mADL LS Mean Difference: Study drug - Placebo (95% CI) (Part B RWD, Day 56, listed as study drug): −8.439
TETRAS ADL LS Mean Difference: Study drug - Placebo (95% CI) (Part B RWD, Day 70): −5.988 (−16.8132, 4.8377)
TETRAS CULS LS Mean Difference: Study drug - Placebo (95% CI) (Part B RWD, Day 70): −0.964 (−6.5938, 4.6660)
TETRAS PSTS LS Mean Difference: Study drug - Placebo (95% CI) (Part B RWD, Day 70): −1.277 (−7.5286, 4.9741)
TETRAS ULS LS Mean Difference: Study drug - Placebo (95% CI) (Part B RWD, Day 70): −0.316 (−3.3765, 2.7441)
mADL LS Mean Difference: Study drug - Placebo (95% CI) (Part B RWD, Day 70): −3.236 (−12.3264, 5.8538)
mADL (TETRAS modified total score) LS Mean CFB (Part B RWD, Day 70 (follow-up), study drug group N = 6, change from randomization baseline): 4.353
TETRAS ADL Mean CFB (Part B RWD, Day 70 (follow-up), study drug group N = 6, change from randomization baseline, last line of the cell group): 18.73
TETRAS ADL Randomization Baseline Mean [5]: 22.17
TETRAS CULS Randomization Baseline Mean [5]: 19.33
TETRAS PS Item 6: Archimedes Spiral (Left) Randomization Baseline Mean (SD) [5]: 1.75 (0.524)
TETRAS PS Item 6: Archimedes Spiral (Right) Randomization Baseline Mean (SD) [5]: 1.75 (0.247)
TETRAS PS Item 7: Handwriting Randomization Baseline Mean (SD) [5]: 1.75 (1.405)
TETRAS PSTS Randomization Baseline Mean [5]: 22.83
TETRAS ULS Randomization Baseline Mean [5]: 10.25
mADL (TETRAS modified total score) Randomization Baseline Mean [5]: 12.17
all TETRAS performance subscale-derived, TETRAS ADL-derived, and quality of life measures after washout (Part B, Day 70, after a 1-week washout period): returned to near pre-dose baseline levels
